Laboratory results as given in patent US9801960B2, “Probe for a biological specimen and labelling method and screening method using the probe” (CANON KABUSHIKI KAISHA, priority 2008, dated 2017).

Legend:
[1] = tested on: Zebrafish juveniles; experiment: In vivo labelling of Zebrafish juveniles with probe for biological specimen; design: key to Staining property: +++: stained; −: no stained; key to Fluorescence sensitivity: +++: strongly observed; ++: moderately observed; +: weakly observed; −: no stained; details: 1 hour; for Site(s) to be labelled: 10 ng/mL in water, stereoscopic microscope; for Fluorescence sensitivity / Staining property: 10 ng/mL; for Fluorescence sensitivity: fluorescence intensity visually evaluated; for Staining property: visually evaluated
Experimental: Five juveniles of Zebrafish were put into one well of a well plate together with rearing water. After rearing water had been discharged, 1 mL of distilled water was added to the well, and a solution of a staining compound (1) in DMSO was further added thereto so as to achieve a concentration of 10 ng/mL, followed by gentle stirring (pipetting). Further, Egg Water was prepared by dissolving artificial seawater SEALIFE (manufactured by Marinetech Co., Ltd.) in distilled water at a concentration of 60 mg/L. After the whole had been left to stand for 1 hour, distilled water in the well was discharged and replaced by 1 mL of fresh Egg Water. In addition, such an operation that Egg Water was discharged and replaced by 1 mL of fresh Egg Water was repeated twice. One of the juveniles was taken out from the well onto a dish, supplemented with 100 μL of a 3% methylcellulose aqueous solution to fix the movement of the juvenile, and photographed with a stereoscopic microscope (MZ10F: manufactured by Leica Microsystems K.K.).
The same operation as that in Example 1 was performed except that the staining compound (1) used in Example 1 was changed to any one of the staining compounds described in Table 1.
The same operation as that in Example 1 was performed except that the staining compound (1) used in Example 1 was changed to any one of indocyanine green (ICG) and fluorescein.
The staining property of each of the staining compounds of Labelled Examples 1 to 78 and Labelled Comparative Examples 1 and 2 was visually evaluated (+++: stained and −: no stained).
The fluorescence intensity of each of the staining compounds of Labelled Examples 1 to 78 and Labelled Comparative Examples 1 and 2 was visually evaluated (+++: strongly observed, ++: moderately observed, +: weakly observed, and −: no stained).

[2] = Excitation and fluorescence emission wavelength measurement; assay type: physicochemical; design: Stokes shift (λem − λex): unit not given here; details: aqueous solution: 10 mg/mL solution in DMSO diluted 500-fold with purified water
Experimental: It should be noted that the excitation wavelength and the fluorescence emission wavelength of the staining compound were determined by measuring an aqueous solution, which had been obtained by diluting 500-fold a 10 mg/mL solution of the staining compound in DMSO with purified water, with a fluorescence spectrophotometer FL 4500 manufactured by Hitachi High-Technologies Corporation.

[3] = Storage stability of staining compound solution in DMSO; assay type: physicochemical; details: 10 ng/mL in DMSO, closed glass container, normal temperature, 1 month; rate of change of absorbance and fluorescence intensity
Experimental: A 10 ng/mL solution of each of the staining compounds of Labelled Examples 1 to 78 and Labelled Comparative Examples 1 and 2 in DMSO was prepared, charged into a well-closed container made of glass, and left to stand still at normal temperature for 1 month. The absorbance and the fluorescence intensity at the time of the start of a storage stability test were measured at a given wavelength, and their rates of change were examined (+++: rates of change of the absorbance and the fluorescence intensity are less than 5%, and thus, the storage stability is highly excellent; ++: rates of change of the absorbance and fluorescence intensity are 5 to 15%, and thus, the storage stability is excellent; and −: rates of change of the absorbance and fluorescence intensity are more than 15%, and thus, the storage stability is poor).

Excitation wavelength λex [2] | Fluorescence emission wavelength λem [2] | Stokes shift (λem − λex) [2] | Compound | Site(s) to be labelled [1] | Fluorescence sensitivity [1] | Staining property [1] | Storage stability [3]
531 nm | 633 nm | 102 | O=C(O)CN1C(=O)/C(=C\c2ccc3c(c2)C2CCCC2N3c2ccccc2)SC1=S (centres unmarked) [Dye 1] | blood vessel, gallbladder, and gastrointestinal | +++ | +++ | +++ (rates of change of the absorbance and the fluorescence intensity are less than 5%, and thus, the storage stability is highly excellent)
525 nm | 607 nm | 82 | O=C(O)CN1C(=O)/C(=C\c2ccc3c(c2)C2CCCC2N3Cc2ccccc2)SC1=S (centres unmarked) [Dye 3] | blood vessel, gallbladder, and gastrointestinal | +++ | +++ | +++ (rates of change of the absorbance and the fluorescence intensity are less than 5%, and thus, the storage stability is highly excellent)
610 nm | 675 nm | 65 | COc1ccc2cc(N3c4ccc(/C=C5\C(=O)N(c6ccccc6)N=C5C(=O)O)cc4C4CCCC43)ccc2c1 (centres unmarked) [Dye 14] | gallbladder | ++ | +++ | +++ (rates of change of the absorbance and the fluorescence intensity are less than 5%, and thus, the storage stability is highly excellent)
527 nm | 636 nm | 109 | CSc1ccc(N2c3ccc(/C=C4/SC(=S)N(CC(=O)O)C4=O)cc3C3CCCC32)cc1 (centres unmarked) [Dye 17] | blood vessel, liver, and gastrointestinal tract | +++ | +++ | +++ (rates of change of the absorbance and the fluorescence intensity are less than 5%, and thus, the storage stability is highly excellent)
533 nm | 661 nm | 128 | COc1ccc2cc(N3c4ccc(/C=C5/SC(=S)N(CCC(=O)O)C5=O)cc4C4CCCC43)ccc2c1 (centres unmarked) [Dye 20] | blood vessel, liver, and gastrointestinal tract | +++ | +++ | +++ (rates of change of the absorbance and the fluorescence intensity are less than 5%, and thus, the storage stability is highly excellent)
518 nm | 575 nm | 57 | O=C(O)CCN1C(=O)/C(=C\c2cc(Br)c3c(c2)C2CCCC2N3c2ccc(Br)cc2)SC1=S (centres unmarked) [Dye 29] | blood vessel, gallbladder, and liver | +++ | +++ | +++ (rates of change of the absorbance and the fluorescence intensity are less than 5%, and thus, the storage stability is highly excellent)

Further lines, the molecule ahead of its results:

Compound | Excitation wavelength λex [2] | Fluorescence emission wavelength λem [2] | Stokes shift (λem − λex) [2] | Site(s) to be labelled [1] | Fluorescence sensitivity [1] | Staining property [1] | Storage stability [3]
O=C(O)CN1C(=O)/C(=C\c2cc(Br)c3c(c2)C2CCCC2N3c2ccc(Br)cc2)SC1=S (centres unmarked) [Dye 2] | 482 nm | 609 nm | 127 | blood vessel, liver, and gastrointestinal tract | +++ | +++ | +++ (rates of change of the absorbance and the fluorescence intensity are less than 5%, and thus, the storage stability is highly excellent)
N#C/C(=C\c1ccc2c(c1)C1CCCC1N2Cc1ccccc1)C(=O)O (centres unmarked) [Dye 5] | 482 nm | 580 nm | 98 | liver, gallbladder, and gastrointestinal tract | ++ | +++ | +++ (rates of change of the absorbance and the fluorescence intensity are less than 5%, and thus, the storage stability is highly excellent)
N#C/C(=C\c1ccc2c(c1)C1CCCC1N2c1ccc(C=C(c2ccccc2)c2ccccc2)cc1)C(=O)O (centres unmarked) [Dye 7] | 498 nm | 601 nm | 103 | blood vessel and liver | +++ | +++ | +++ (rates of change of the absorbance and the fluorescence intensity are less than 5%, and thus, the storage stability is highly excellent)
O=C(O)Cn1c(=O)/c(=C\c2ccc3c(c2)C2CCCC2N3Cc2ccccc2)s/c1=C1/SC(=S)N(Cc2ccccc2)C1=O (centres unmarked) [Dye 11] | 588 nm | 668 nm | 80 | blood vessel, liver, and gastrointestinal tract | ++ | +++ | +++ (rates of change of the absorbance and the fluorescence intensity are less than 5%, and thus, the storage stability is highly excellent)
N#C/C(=C\c1ccc2c(c1)C1CCCC1N2c1ccccc1)C(=O)O (centres unmarked) [Dye 13] | 477 nm | 567 nm | 90 | liver and gastrointestinal tract | ++ | +++ | +++ (rates of change of the absorbance and the fluorescence intensity are less than 5%, and thus, the storage stability is highly excellent)
CC1=NN(c2ccccc2)C(=O)/C1=C\c1cc(Br)c2c(c1)C1CCCC1N2c1ccc(Br)cc1 (centres unmarked) [Dye 22] | 570 nm | 598 nm | 28 | liver and gastrointestinal tract | +++ | +++ | ++ (rates of change of the absorbance and fluorescence intensity are 5 to 15%, and thus, the storage stability is excellent)
O=C(O)C[n+]1c(/C=C/c2ccc3c(c2)C2CCCC2N3Cc2ccccc2)sc2ccccc21 (centres unmarked) [Dye 24] | 566 nm | 611 nm | 45 | nose | +++ | +++ | +++ (rates of change of the absorbance and the fluorescence intensity are less than 5%, and thus, the storage stability is highly excellent)
N#C/C(=C\c1cc(Br)c2c(c1)C1CCCC1N2Cc1cccc(Br)c1)C(=O)O (centres unmarked) [Dye 25] | 394 nm | 554 nm | 160 | gastrointestinal tract | ++ | +++ | +++ (rates of change of the absorbance and the fluorescence intensity are less than 5%, and thus, the storage stability is highly excellent)
O=C1OC2(c3ccc(O)cc3Oc3cc(O)ccc32)c2ccccc21 [fluorescein, reference compound] | – | – | – | – | ++ | +++ | ++ (rates of change of the absorbance and fluorescence intensity are 5 to 15%, and thus, the storage stability is excellent)
